{
  "source": "ChEMBL document CHEMBL5233277",
  "about": "“Oxidative Metabolism as a Modulator of Kratom's Biological Actions” (J Med Chem, 2021)",
  "key": {"[1]": {"experiment": "Stability in 129Sv6 mouse liver microsomes assessed as half life at 1 uM incubated for 60 mins by LC-MS/MS analysis", "assay_type": "ADME, Microsome", "conditions": "1 h"}, "[2]": {"experiment": "Toxicity in C57BL/6J mouse assessed as effect on locomotion at 20 mg/kg, po measured after 3 hrs", "assay_type": "organism-based", "conditions": "in vivo"}, "Mus musculus [3]": {"tested_on": "Mus musculus", "experiment": "Antinociceptive activity in MOR knock out C57BL/6J mouse at 45 mg/kg, po measured after 20 mins", "assay_type": "functional, organism-based"}, "[4]": {"experiment": "Drug metabolism in C57BL/6J mouse brain assessed as 3-dehydromitragynine formation at ED80, po", "assay_type": "ADME, tissue-based"}, "[5]": {"experiment": "Drug metabolism in 129Sv6 mouse liver microsomes assessed as mitragynine pseudoindoxyl formation at 1 uM incubated for 60 mins in presence of ketoconazole by LC-MS/MS analysis", "assay_type": "ADME, Microsome", "conditions": "1 h"}, "[6]": {"experiment": "Drug metabolism in C57BL/6J mouse plasma assessed as 3-dehydromitragynine formation at ED80, po", "assay_type": "ADME, cell-free"}, "[7]": {"experiment": "Drug metabolism in C57BL/6J mouse plasma assessed as mitragynine pseudoindoxyl formation at 30 mg/kg, po measured after 20 mins by LC-MS/MS analysis", "assay_type": "ADME, organism-based", "conditions": "in vivo"}, "[8]": {"experiment": "Drug metabolism in human liver microsomes assessed as mitragynine pseudoindoxyl formation at 1 uM incubated for 60 mins by LC-MS/MS analysis", "assay_type": "ADME, Microsome", "conditions": "1 h"}, "[9]": {"experiment": "Drug metabolism in human S9 fractions assessed as 3-dehydromitragynine formation at 1 uM incubated for 60 mins in absence of NADPH by LC-MS/MS analysis", "assay_type": "ADME, subcellular, S9 fraction", "conditions": "s9, 1 h"}, "[10]": {"experiment": "Drug metabolism in human liver microsomes assessed as compound depletion at 1 uM incubated for 60 mins in presence of NADPH by LC-MS/MS analysis", "assay_type": "ADME, Microsome", "conditions": "1 h"}, "Mus musculus [11]": {"tested_on": "Mus musculus", "experiment": "Antinociceptive activity in KOR knock out 129Sv6 mouse at 10 mg/kg, po measured after 15 mins", "assay_type": "functional, organism-based"}, "[12]": {"experiment": "Drug concentration in 129Sv6 mouse brain at 10 mg/kg, po measured after 15 mins by LC-MS/MS analysis", "assay_type": "ADME, organism-based", "conditions": "read-out: Ct"}, "[13]": {"experiment": "Drug metabolism in 129Sv6 mouse liver microsomes assessed as 3-dehydromitragynine formation at 1 uM incubated for 60 mins by LC-MS/MS analysis", "assay_type": "ADME, Microsome", "conditions": "1 h"}, "[14]": {"experiment": "Drug metabolism in C57BL/6J mouse liver microsomes assessed as mitragynine pseudoindoxyl formation at 1 uM incubated for 60 mins by LC-MS/MS analysis", "assay_type": "ADME, Microsome", "conditions": "1 h"}, "[15]": {"experiment": "Drug metabolism in human S9 fractions assessed as 3-dehydromitragynine formation at 1 uM incubated for 60 mins in presence of NADPH by LC-MS/MS analysis", "assay_type": "ADME, subcellular, S9 fraction", "conditions": "s9, 1 h"}, "Mus musculus [16]": {"tested_on": "Mus musculus", "experiment": "Antinociceptive activity in KOR knock out C57BL/6J mouse at 45 mg/kg, po measured after 20 mins", "assay_type": "functional, organism-based"}, "Cytochrome P450 3A": {"biological_target": "Cytochrome P450 3A (Mus musculus, UniProt O09158+Q64464+Q64481+Q9JMA7)", "experiment": "Metabolic stability in CYP3A KO C57BL/6J mouse liver microsomes assessed as CYP3A-mediated decomposition by measuring half life at 1 uM incubated for 60 mins in presence of ketoconazole by LC-MS/MS analysis", "assay_type": "ADME, Microsome", "conditions": "1 h"}, "Mus musculus [17]": {"tested_on": "Mus musculus", "experiment": "Antinociceptive activity in sc dosed C57BL/6J mouse model assessed as peak effect measured at 20 mins by radiant heat tail flick assay", "assay_type": "functional"}, "Mus musculus [18]": {"tested_on": "Mus musculus", "experiment": "Antinociceptive activity in po dosed C57BL/6J mouse model assessed as peak effect measured at 20 mins by radiant heat tail flick assay", "assay_type": "functional"}, "[19]": {"experiment": "Drug metabolism in human liver microsomes assessed as 3-dehydromitragynine formation at 1 uM incubated for 60 mins in absence of NADPH by LC-MS/MS analysis", "assay_type": "ADME, Microsome", "conditions": "1 h"}, "[20]": {"experiment": "Drug metabolism in human liver microsomes assessed as 3-dehydromitragynine formation at 1 uM incubated for 60 mins in presence of NADPH by LC-MS/MS analysis", "assay_type": "ADME, Microsome", "conditions": "1 h"}, "Mus musculus [21]": {"tested_on": "Mus musculus", "experiment": "Antinociceptive activity in sc dosed 129Sv6 mouse model assessed as peak effect measured at 15 mins by radiant heat tail flick assay", "assay_type": "functional", "conditions": "129Sv6, 0.25 h"}},
  "note": "Active and inactive are the calls of the source. No cut-off for these calls is given here.",
  "data": [
    {"smiles": "CC[C@@H]1CN2CCc3c([nH]c4cccc(OC)c34)[C@@H]2C[C@@H]1/C(=C\\OC)C(=O)OC", "values": [
      {"measurement": "t1/2", "setting": "[1]", "value": 13.5, "unit": "min"},
      {"measurement": "Activity", "setting": "[2]", "value": "Non-Toxic"},
      {"measurement": "Activity", "setting": "Mus musculus [3]", "value": "inactive"},
      {"measurement": "Drug metabolism", "setting": "[4]", "value": 0.094, "unit": "µM"},
      {"measurement": "Drug metabolism", "setting": "[5]", "value": "Metabolite_Notdetected"},
      {"measurement": "Drug metabolism", "setting": "[6]", "value": 0.037, "unit": "µM"},
      {"measurement": "Drug metabolism", "setting": "[7]", "value": 20, "unit": "nM"},
      {"measurement": "Drug metabolism", "setting": "[8]", "value": "Metabolite_Detected"},
      {"measurement": "Drug metabolism", "setting": "[9]", "value": "Metabolite_Detected"},
      {"measurement": "Drug metabolism", "setting": "[10]", "value": "Metabolite_Detected"},
      {"measurement": "Activity", "setting": "Mus musculus [11]", "value": "Active"},
      {"measurement": "concentration at 0.25 h", "setting": "[12]", "value": 12.2, "unit": "µM"},
      {"measurement": "Drug metabolism", "setting": "[13]", "value": "Metabolite_Detected"},
      {"measurement": "Drug metabolism", "setting": "[14]", "value": "Metabolite_Detected"},
      {"measurement": "Drug metabolism", "setting": "[15]", "value": "Metabolite_Detected"},
      {"measurement": "Activity", "setting": "Mus musculus [16]", "value": "Active"},
      {"measurement": "t1/2", "setting": "Cytochrome P450 3A", "value": 25.2, "unit": "min"},
      {"measurement": "ED50", "setting": "Mus musculus [17]", "value": 25.9, "unit": "mg/kg"},
      {"measurement": "ED50", "setting": "Mus musculus [18]", "value": 6.25, "unit": "mg/kg"},
      {"measurement": "Drug metabolism", "setting": "[19]", "value": "Metabolite_Detected"},
      {"measurement": "Drug metabolism", "setting": "[20]", "value": "Metabolite_Detected"},
      {"measurement": "ED50", "setting": "Mus musculus [21]", "value": 57.3, "unit": "mg/kg"}
    ]}
  ]
}
